{"source": "patent US10227357B2", "about": "“Compounds and methods for kinase modulation, and indications therefor” (Plexxikon Inc., priority 2012, dated 2019)", "key": {"D816V KIT mutation": {"molecular_target": "D816V KIT mutation (Homo sapiens, UniProt P10721, D816V)", "sequence (P10721 26-976 D816V)": "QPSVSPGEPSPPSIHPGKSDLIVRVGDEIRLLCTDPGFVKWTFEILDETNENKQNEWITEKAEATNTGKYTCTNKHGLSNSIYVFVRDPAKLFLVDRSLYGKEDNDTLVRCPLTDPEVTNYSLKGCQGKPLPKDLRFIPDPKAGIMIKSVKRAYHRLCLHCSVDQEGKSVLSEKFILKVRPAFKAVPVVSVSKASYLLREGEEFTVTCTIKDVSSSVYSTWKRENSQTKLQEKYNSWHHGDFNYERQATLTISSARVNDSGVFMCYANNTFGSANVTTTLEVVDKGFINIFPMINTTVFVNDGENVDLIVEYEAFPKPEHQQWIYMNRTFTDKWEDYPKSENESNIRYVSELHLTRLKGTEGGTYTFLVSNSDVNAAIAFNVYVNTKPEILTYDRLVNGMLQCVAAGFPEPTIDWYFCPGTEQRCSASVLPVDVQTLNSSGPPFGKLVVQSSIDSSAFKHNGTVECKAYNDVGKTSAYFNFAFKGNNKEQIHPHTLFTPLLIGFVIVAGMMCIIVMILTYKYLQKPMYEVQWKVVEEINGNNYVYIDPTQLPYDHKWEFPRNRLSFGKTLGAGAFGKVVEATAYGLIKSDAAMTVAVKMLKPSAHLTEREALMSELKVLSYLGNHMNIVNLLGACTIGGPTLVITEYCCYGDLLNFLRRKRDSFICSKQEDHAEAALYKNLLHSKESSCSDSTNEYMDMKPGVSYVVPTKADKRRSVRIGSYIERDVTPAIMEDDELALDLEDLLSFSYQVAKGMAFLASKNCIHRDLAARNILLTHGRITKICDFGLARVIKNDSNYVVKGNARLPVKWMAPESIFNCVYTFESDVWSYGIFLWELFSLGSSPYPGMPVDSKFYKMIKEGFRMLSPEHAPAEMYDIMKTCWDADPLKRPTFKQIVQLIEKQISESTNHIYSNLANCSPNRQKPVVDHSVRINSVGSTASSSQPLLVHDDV", "conditions": "Frost et al., 2002; cited from earlier work"}, "[1]": {"tested_on": "cells with activating c-kit mutations in the catalytic region", "conditions": "Ma et al., 2002; cited from earlier work"}, "c-kit kinase": {"molecular_target": "T1, c-kit kinase (Homo sapiens, UniProt P10721)", "T1 construct": "The c-kit (or kinase domain thereof) is an active kinase in AlphaScreen; poly-Histidine tag (in-house protein only) (cleaved yes); host or cells: E. coli BL21(DE3)RIL, co-expressed with PTP1B", "T1 sequence (P10721 26-976)": "as the sequence (P10721 26-976 D816V) above, with V791D counted along it", "test": "c-Kit biochemical assay, AlphaScreen, 10 μM ATP", "conditions": "c-kit biochemical inhibitory activity; read-out: Biochemical activity (IC50 μM) Kit", "outline": "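His-tagged c-Kit expressed in E. coli with co-expressed PTP1B (dephosphorylated), tag removed; 0.1 ng per reaction with biotinylated-peptide substrate in 50 mM HEPES pH 7.2, 5 mM MgCl2, 5 mM MnCl2, 5% DMSO, 10 μM ATP, 1 h at room temperature. Phosphorylation detected by AlphaScreen (streptavidin donor, PY20 acceptor beads); IC50 from 8-point 1:3 dilution series.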"}, "c-kit mutant D816V": {"molecular_target": "T2, c-kit mutant D816V (Homo sapiens, UniProt P10721, D816V/DEL694-753)", "T2 construct": "residues 551-934, kinase insertion domain residues 694-753 deleted; 6x-histidine (N); made in house; host or cells: E. coli Arctic Express (DE3) RIL (Stratagene)", "T2 sequence (P10721 with tags, fused parts or gaps DEL694-753/D816V)": "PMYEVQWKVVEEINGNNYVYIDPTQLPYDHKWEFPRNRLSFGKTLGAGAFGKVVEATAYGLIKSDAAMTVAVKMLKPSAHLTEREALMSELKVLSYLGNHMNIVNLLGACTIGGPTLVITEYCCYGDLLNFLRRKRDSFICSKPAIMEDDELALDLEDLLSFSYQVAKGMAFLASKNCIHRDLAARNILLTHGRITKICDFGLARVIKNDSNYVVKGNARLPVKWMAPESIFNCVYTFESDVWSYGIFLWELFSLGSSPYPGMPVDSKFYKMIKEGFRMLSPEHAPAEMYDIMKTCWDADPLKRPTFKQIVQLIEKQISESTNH", "test": "c-Kit mutant D816V biochemical assay, AlphaScreen", "conditions": "c-kit D816V biochemical inhibitory activity; read-out: Biochemical activity (IC50 μM) Kit D816V", "outline": "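Eight-point, threefold compound series incubated 30 min at room temperature with E. coli-produced D816V kinase, 10 μM ATP, Mg2+/Mn2+ HEPES buffer pH 7.2 and 5% DMSO. After EDTA stop, streptavidin and anti-phosphotyrosine (PY20) AlphaScreen beads gave the read-out, and IC50 was fitted from the concentration–signal curve.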"}}, "data": [{"smiles": "Cc1ccc(NC(=O)c2ccc(CN3CCN(C)CC3)cc2)cc1Nc1nccc(-c2cccnc2)n1", "note": "[imatinib]", "values": [{"measurement": "sensitivity of D816V KIT mutation", "setting": "D816V KIT mutation", "value": "resistant"}]}, {"smiles": "Cc1ccc(NC(=O)c2ccc(CN3CCN(C)CC3)cc2)cc1Nc1nccc(-c2cccnc2)n1", "note": "[STI571]", "values": [{"measurement": "inhibition of cells with c-kit mutations in the catalytic region", "setting": "[1]", "value": "did not inhibit"}]}, {"smiles": "CCCS(=O)(=O)Nc1ccc(-c2ncnc3[nH]c(C)cc23)cc1", "note": "[P-0289, N-[4-(6-methyl-7H-pyrrolo[2,3-d]pyrimidin-4-yl)phenyl]propane-1-sulfonamide]", "values": [{"measurement": "IC50", "setting": "c-kit kinase", "value": "10 to 200", "unit": "µM"}, {"measurement": "IC50", "setting": "c-kit mutant D816V", "value": "0.0001 to 1", "unit": "µM"}]}, {"smiles": "COc1cccc([C@H](C)NC(=O)N2CCN(c3ncnc4[nH]c(-c5ccncc5)cc34)C[C@H]2C)c1", "note": "[P-0060, (2R)-N-[(1S)-1-(3-methoxyphenyl)ethyl]-2-methyl-4-[6-(4-pyridyl)-7H-pyrrolo[2,3-d]pyrimidin-4-yl]piperazine-1-carboxamide]", "values": [{"measurement": "IC50", "setting": "c-kit kinase", "value": "0.0001 to 1", "unit": "µM"}, {"measurement": "IC50", "setting": "c-kit mutant D816V", "value": "0.0001 to 1", "unit": "µM"}]}, {"smiles": "Cn1cc(-c2cc3c(N4CCC(NS(=O)(=O)c5ccc(C6(C#N)CC6)cc5)CC4)ncnc3[nH]2)cn1", "note": "[P-0486, 4-(1-cyanocyclopropyl)-N-[1-[6-(1-methylpyrazol-4-yl)-7H-pyrrolo[2,3-d]pyrimidin-4-yl]-4-piperidyl]benzenesulfonamide]", "values": [{"measurement": "IC50", "setting": "c-kit kinase", "value": "1 to 10", "unit": "µM"}, {"measurement": "IC50", "setting": "c-kit mutant D816V", "value": "1 to 10", "unit": "µM"}]}, {"smiles": "Cc1ccc(S(=O)(=O)Nc2ccc(-c3ncnc4cc(C5=CCNCC5)sc34)cc2)cc1", "note": "[P-0611, 4-methyl-N-[4-[6-(1,2,3,6-tetrahydropyridin-4-yl)thieno[3,2-d]pyrimidin-4-yl]phenyl]benzenesulfonamide]", "values": [{"measurement": "IC50", "setting": "c-kit kinase", "value": "0.0001 to 1", "unit": "µM"}, {"measurement": "IC50", "setting": "c-kit mutant D816V", "value": "0.0001 to 1", "unit": "µM"}]}, {"smiles": "Cc1cc2c(N3CCN(C(=O)N[C@@H](C)c4cccc(Cl)c4)C(C)(C)C3)ncnc2[nH]1", "note": "[P-0641, N-[(1S)-1-(3-chlorophenyl)ethyl]-2,2-dimethyl-4-(6-methyl-7H-pyrrolo[2,3-d]pyrimidin-4-yl)piperazine-1-carboxamide]", "values": [{"measurement": "IC50", "setting": "c-kit kinase", "value": "10 to 200", "unit": "µM"}, {"measurement": "IC50", "setting": "c-kit mutant D816V", "value": "0.0001 to 1", "unit": "µM"}]}, {"smiles": "COc1ccc(S(=O)(=O)Nc2ccc(-c3ncnc4[nH]c(C)cc34)cc2)cc1F", "note": "[P-0325, 3-fluoro-4-methoxy-N-[4-(6-methyl-7H-pyrrolo[2,3-d]pyrimidin-4-yl)phenyl]benzenesulfonamide]", "values": [{"measurement": "IC50", "setting": "c-kit kinase", "value": "10 to 200", "unit": "µM"}, {"measurement": "IC50", "setting": "c-kit mutant D816V", "value": "1 to 10", "unit": "µM"}]}, {"smiles": "COc1ncc(-c2cc3c(N4CCN(C(=O)NCc5ccc(F)cc5)CC4)ncnc3[nH]2)cn1", "note": "[P-0106, N-[(4-fluorophenyl)methyl]-4-[6-(2-methoxypyrimidin-5-yl)-7H-pyrrolo[2,3-d]pyrimidin-4-yl]piperazine-1-carboxamide]", "values": [{"measurement": "IC50", "setting": "c-kit kinase", "value": "1 to 10", "unit": "µM"}, {"measurement": "IC50", "setting": "c-kit mutant D816V", "value": "1 to 10", "unit": "µM"}]}, {"smiles": "Cc1cc2c(-c3ccc(NS(=O)(=O)c4cnn(C(F)F)c4)cc3)ncnc2[nH]1", "note": "[P-0322, 1-(difluoromethyl)-N-[4-(6-methyl-7H-pyrrolo[2,3-d]pyrimidin-4-yl)phenyl]pyrazole-4-sulfonamide]", "values": [{"measurement": "IC50", "setting": "c-kit kinase", "value": "10 to 200", "unit": "µM"}, {"measurement": "IC50", "setting": "c-kit mutant D816V", "value": "1 to 10", "unit": "µM"}]}, {"smiles": "COc1ccc([C@@H](C)NC(=O)N2CCN(c3ncnc4[nH]c(-c5ccc(F)cc5)cc34)C[C@H]2C)cc1", "note": "[P-0031, (2R)-4-[6-(4-fluorophenyl)-7H-pyrrolo[2,3-d]pyrimidin-4-yl]-N-[(1R)-1-(4-methoxyphenyl)ethyl]-2-methyl-piperazine-1-carboxamide]", "values": [{"measurement": "IC50", "setting": "c-kit kinase", "value": "10 to 200", "unit": "µM"}, {"measurement": "IC50", "setting": "c-kit mutant D816V", "value": "1 to 10", "unit": "µM"}]}, {"smiles": "COCCOc1cc2ncnc(-c3ccc(NS(=O)(=O)c4ccc(Cl)cc4)cc3F)c2cc1OCCOC", "note": "[P-0261, N-[4-[6,7-bis(2-methoxyethoxy)quinazolin-4-yl]-3-fluoro-phenyl]-4-chloro-benzenesulfonamide]", "values": [{"measurement": "IC50", "setting": "c-kit kinase", "value": "0.0001 to 1", "unit": "µM"}, {"measurement": "IC50", "setting": "c-kit mutant D816V", "value": "0.0001 to 1", "unit": "µM"}]}, {"smiles": "C[C@H](NC(=O)N1CCN(c2ncnc3[nH]c(-c4ccc(F)cc4)cc23)CC1(C)C)c1ccc(Cl)cc1", "note": "[P-0700, N-[(1S)-1-(4-chlorophenyl)ethyl]-4-[6-(4-fluorophenyl)-7H-pyrrolo[2,3-d]pyrimidin-4-yl]-2,2-dimethyl-piperazine-1-carboxamide]", "values": [{"measurement": "IC50", "setting": "c-kit kinase", "value": "1 to 10", "unit": "µM"}, {"measurement": "IC50", "setting": "c-kit mutant D816V", "value": "0.0001 to 1", "unit": "µM"}]}, {"smiles": "O=C(Nc1cccc(C(F)(F)F)c1)N1CCN(c2ncnc3[nH]c(-c4cccnc4)cc23)CC1", "note": "[P-0223, 4-[6-(3-pyridyl)-7H-pyrrolo[2,3-d]pyrimidin-4-yl]-N-[3-(trifluoromethyl)phenyl]piperazine-1-carboxamide]", "values": [{"measurement": "IC50", "setting": "c-kit kinase", "value": "0.0001 to 1", "unit": "µM"}, {"measurement": "IC50", "setting": "c-kit mutant D816V", "value": "0.0001 to 1", "unit": "µM"}]}, {"smiles": "Cc1nc(C)c(-c2cc3ncnc(N4CCN(C(=O)N[C@@H](C)c5cccc(Cl)c5)C(C)(C)C4)c3s2)s1", "note": "[P-0557, N-[(1S)-1-(3-chlorophenyl)ethyl]-4-[6-(2,4-dimethylthiazol-5-yl)thieno[3,2-d]pyrimidin-4-yl]-2,2-dimethyl-piperazine-1-carboxamide]", "values": [{"measurement": "IC50", "setting": "c-kit kinase", "value": "10 to 200", "unit": "µM"}, {"measurement": "IC50", "setting": "c-kit mutant D816V", "value": "0.0001 to 1", "unit": "µM"}]}, {"smiles": "COc1cccc([C@@H](C)NC(=O)N2CCN(c3ncnc4[nH]c(-c5ccc(F)cc5)cc34)CC2)c1", "note": "[P-0149, 4-[6-(4-fluorophenyl)-7H-pyrrolo[2,3-d]pyrimidin-4-yl]-N-[(1R)-1-(3-methoxyphenyl)ethyl]piperazine-1-carboxamide]", "values": [{"measurement": "IC50", "setting": "c-kit kinase", "value": "10 to 200", "unit": "µM"}, {"measurement": "IC50", "setting": "c-kit mutant D816V", "value": "10 to 200", "unit": "µM"}]}, {"smiles": "Cc1nn(C)cc1-c1cc2c(N3CCN(C(=O)N[C@@H](C)c4ccc(F)cc4)C(C)(C)C3)ncnc2[nH]1", "note": "[P-0721, 4-[6-(1,3-dimethylpyrazol-4-yl)-7H-pyrrolo[2,3-d]pyrimidin-4-yl]-N-[(1S)-1-(4-fluorophenyl)ethyl]-2,2-dimethyl-piperazine-1-carboxamide]", "values": [{"measurement": "IC50", "setting": "c-kit kinase", "value": "0.0001 to 1", "unit": "µM"}, {"measurement": "IC50", "setting": "c-kit mutant D816V", "value": "0.0001 to 1", "unit": "µM"}]}, {"smiles": "COc1cccc([C@H](C)NC(=O)N2CCN(c3ncnc4[nH]c(-c5ccc(C#N)cc5)cc34)CC2(C)C)c1", "note": "[P-0687, 4-[6-(4-cyanophenyl)-7H-pyrrolo[2,3-d]pyrimidin-4-yl]-N-[(1S)-1-(3-methoxyphenyl)ethyl]-2,2-dimethyl-piperazine-1-carboxamide]", "values": [{"measurement": "IC50", "setting": "c-kit kinase", "value": "10 to 200", "unit": "µM"}, {"measurement": "IC50", "setting": "c-kit mutant D816V", "value": "1 to 10", "unit": "µM"}]}, {"smiles": "Cc1cc2c(N3CCN(C(=O)N[C@@H](C)c4cccc(Cl)c4)[C@H](C)C3)ncnc2[nH]1", "note": "[P-0647, (2R)-N-[(1S)-1-(3-chlorophenyl)ethyl]-2-methyl-4-(6-methyl-7H-pyrrolo[2,3-d]pyrimidin-4-yl)piperazine-1-carboxamide]", "values": [{"measurement": "IC50", "setting": "c-kit kinase", "value": "1 to 10", "unit": "µM"}, {"measurement": "IC50", "setting": "c-kit mutant D816V", "value": "0.0001 to 1", "unit": "µM"}]}, {"smiles": "Cc1ccc(NS(=O)(=O)c2ccc(-c3ncnc4[nH]c(-c5ccc(F)cc5)cc34)cc2)cc1", "note": "[P-0426, 4-[6-(4-fluorophenyl)-7H-pyrrolo[2,3-d]pyrimidin-4-yl]-N-(p-tolyl)benzenesulfonamide]", "values": [{"measurement": "IC50", "setting": "c-kit kinase", "value": "10 to 200", "unit": "µM"}, {"measurement": "IC50", "setting": "c-kit mutant D816V", "value": "1 to 10", "unit": "µM"}]}, {"smiles": "Cc1nn(C)cc1-c1cc2ncnc(N3CCN(C(=O)N[C@@H](C)c4cccc(OC(F)F)c4)[C@H](C)C3)c2s1", "note": "[P-0587, (2R)-N-[(1S)-1-[3-(difluoromethoxy)phenyl]ethyl]-4-[6-(1,3-dimethylpyrazol-4-yl)thieno[3,2-d]pyrimidin-4-yl]-2-methyl-piperazine-1-carboxamide]", "values": [{"measurement": "IC50", "setting": "c-kit kinase", "value": "10 to 200", "unit": "µM"}, {"measurement": "IC50", "setting": "c-kit mutant D816V", "value": "0.0001 to 1", "unit": "µM"}]}, {"smiles": "COc1ccc(C(=O)N2CCN(c3ncnc4[nH]ccc34)CC2)cc1", "note": "[P-0234, (4-methoxyphenyl)-[4-(7H-pyrrolo[2,3-d]pyrimidin-4-yl)piperazin-1-yl]methanone]", "values": [{"measurement": "IC50", "setting": "c-kit kinase", "value": "10 to 200", "unit": "µM"}, {"measurement": "IC50", "setting": "c-kit mutant D816V", "value": "10 to 200", "unit": "µM"}]}, {"smiles": "O=C(NCc1ccccc1Cl)N1CCN(c2ncnc3[nH]c(-c4ccc(F)cc4)cc23)CC1", "note": "[P-0154, N-[(2-chlorophenyl)methyl]-4-[6-(4-fluorophenyl)-7H-pyrrolo[2,3-d]pyrimidin-4-yl]piperazine-1-carboxamide]", "values": [{"measurement": "IC50", "setting": "c-kit kinase", "value": "10 to 200", "unit": "µM"}, {"measurement": "IC50", "setting": "c-kit mutant D816V", "value": "1 to 10", "unit": "µM"}]}]}
